According to US11213527B2, “Inhibitory effect of low molecular weight compound on cancer and fibrosis” (NATIONAL UNIVERSITY CORPORATION TOTTORI UNIVERSITY, priority 2014, dated 2022):

Tests used:
[1] = tested on: HuH7 cells (a liver cancer cell line); assay: Inhibitory effect on cancer cells (WST assay); type: cell-based; settings: 0-50 μM; 4 days (concentration-dependent) or 0, 1, 2, 4 days (time-dependent); DMSO control
Procedure: HuH7 cells (a liver cancer cell line) were cultured in a DMEM on a 10-cm cell culture dish (TPP Techno Plastic Products AG, Trasadingen, Switzerland) at 5% CO2, 37° C., and a humidity of 100%. After the cells were grown to 70 to 90% confluency, 200 μL of a Trypsin/EDTA solution was added thereto to detach the cells. The cells were centrifuged at 1000 rpm for 5 min at room temperature for recovery. Then, the cells in one dish were divided into four dishes and subcultured.
When a concentration-dependent anti-tumor effect was examined, HuH7 cells at 70 to 90% confluency were collected, and 1×10^4 cells were seeded in each well of a 96-well plate (FALCON). When a time-dependent anti-tumor effect was examined, 5×10^3 cells were seeded. Twenty-four hours after the seeding, the cells were treated with IC-2, PN3-13, or HC-1, and further incubated at 37° C. DMSO was used as a control.
The concentration of each low-molecular-weight compound was provided below. […] After that, absorbance (at a measurement wavelength of 450 nm/a control wavelength of 600 nm) was measured by a 96-well microplate reader (TECAN, Zurich, Switzerland). The absorbance of cells was calculated by subtracting the absorbance of reagent blank from the measured result, and was then converted to the viable cell count. Also, the IC50 of each low-molecular-weight compound was determined by using an equation: […]

[2] = tested on: CD44-negative and CD44-positive HuH7 cells; assay: Sphere formation capability of sorted HuH7 cells; type: cell-based, human; settings: 50 μM IC-2, 10 μM PN-3-13; one week
Procedure: First, HuH7 cells were collected. Next, the cells were stained with an anti-human CD44 monoclonal antibody (Cell Signaling Technology Inc., Danvers, Mass., USA)), and then with an Alexa 488-labeled goat anti-mouse IgG antibody. After that, a Beckman Coulter-MoFlo XDP (Beckman Coulter Inc., Fullerton, Calif., USA) was used to sort the cells into a CD44-negative fraction and a CD44-positive fraction. The sorted cells were seeded at 5×10^4 cells/well on a 24-well ultra-low-attachment multiwell plate (Corning, N.Y., USA). Subsequently, the cells were cultured at 37° C. in the presence of 5% CO2 in a DMEM/Nutrient Mixture F-12 Ham (Sigma-Aldrich, St. Louis, Mo., USA) containing 20 ng/mL of recombinant human epidermal growth factor, 20 ng/mL of human basic fibroblast growth factor, 1×B27, and L-glutamine. Twenty-four hours after the plating, 1% DSMO, 50 μM IC-2, and 10 μM PN-3-13 were each added to the corresponding well and the cells were further cultured. One week after the chemical treatment, the number of spheres (with a size of 100 μm or larger) in 15 visual fields/well was counted.

[3] = tested on: Wnt/β-catenin signal; assay: Dual-luciferase reporter assay in HSC2 cells; type: cell-based; settings: 48 hours
Procedure: First, 5×10^4 of HSC2 cells were seeded on each well of a 24-well plate. After 24 hours, transfection was carried out by using 1 μL of lipofectamine 2000 (Invitrogen, Life Technologies Corp., Carlsbad, Calif.), 50 ng of pTCF4-CMVpro-FLuc, and 2.5 ng of pCMVpro-Rluc. After 48 hours from the low-molecular-weight compound treatment, 100 μL of 20% Passive Lysis Buffer (PROMEGA, Wisconsin, USA) was added to each well of the 24-well plate. The plate was shaken at ordinary temperature for 15 min and was then allowed to stand overnight at −30° C. On the following day, a Dual-Luciferase (a registered trademark) Reporter Assay System (PROMEGA) was used, and luciferase activity was then measured by using a MiniLumat LB 9506 (Berthold Technologies, Bad Wildbad, German).

O=C1[C@H](Cc2ccccc2)N2C(=O)CCN(C(=O)NCc3ccccc3)[C@H]2CN1Cc1cccc2ccccc12 [IC-2]
proliferation of HuH7 cells (cell viability) [1]: significantly inhibited proliferation | formation of spheres, CD44-negative HuH7 cells [2]: inhibited formation of spheres | formation of spheres, CD44-positive HuH7 cells [2]: inhibited formation of spheres | inhibitory effect on a Wnt/β-catenin signal in the squamous cell carcinoma cells [3]: exerted an inhibitory effect
